Assay results reported in ChEMBL document CHEMBL4602663, “Isocadiolides A-H: Polybrominated Aromatics from a Synoicum sp. Ascidian” (J Nat Prod, 2020).

Experiments:
[1] = system: Staphylococcus aureus; assay: Antibacterial activity against Staphylococcus aureus ATCC 6538P assessed as reduction in microbial growth; format: functional
[2] = system: Enterococcus faecalis; assay: Antibacterial activity against Enterococcus faecalis ATCC 19433 assessed as reduction in microbial growth; format: functional
[3] = system: Enterococcus faecium; assay: Antibacterial activity against Enterococcus faecium ATCC 19434 assessed as reduction in microbial growth; format: functional
[4] = system: Salmonella enterica; assay: Antibacterial activity against Salmonella enterica ATCC 14028 assessed as reduction in microbial growth; format: functional
[5] = system: Proteus hauseri; assay: Antibacterial activity against Proteus hauseri NBRC 3851 assessed as reduction in microbial growth; format: functional
[6] = system: Klebsiella pneumoniae; assay: Antibacterial activity against Klebsiella pneumoniae ATCC 10031 assessed as reduction in microbial growth; format: functional
[7] = target: T1, Sortase A (Staphylococcus aureus, UniProt Q9S446); assay: Inhibition of Staphylococcus aureus sortase A
T1 sequence (Q9S446 whole entry): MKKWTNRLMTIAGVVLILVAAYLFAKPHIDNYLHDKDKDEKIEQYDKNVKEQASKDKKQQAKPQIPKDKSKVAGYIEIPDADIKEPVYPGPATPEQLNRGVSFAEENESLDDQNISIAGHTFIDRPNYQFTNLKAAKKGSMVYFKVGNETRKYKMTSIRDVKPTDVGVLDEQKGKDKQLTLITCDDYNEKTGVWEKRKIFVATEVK

[8] = target: Isocitrate lyase (Candida albicans, UniProt Q9P8Q7); assay: Inhibition of Candida albicans ICL assessed as reduction in glyoxylate phenylhydrazone formation using M threo-DL(+)isocitrate as substrate incubated for 30 mins by spectrophotometric method
[9] = system: K562; assay: Cytotoxicity against human K562 cells assessed as reduction in cell viability after 72 hrs by sulforhodamine B assay; format: functional, cell-based; details: K562, 72 h
[10] = system: A549; assay: Cytotoxicity against human A549 cells assessed as reduction in cell viability after 72 hrs by sulforhodamine B assay; format: functional, cell-based; details: A549, 72 h

Sequence of Isocitrate lyase (Q9P8Q7 whole entry): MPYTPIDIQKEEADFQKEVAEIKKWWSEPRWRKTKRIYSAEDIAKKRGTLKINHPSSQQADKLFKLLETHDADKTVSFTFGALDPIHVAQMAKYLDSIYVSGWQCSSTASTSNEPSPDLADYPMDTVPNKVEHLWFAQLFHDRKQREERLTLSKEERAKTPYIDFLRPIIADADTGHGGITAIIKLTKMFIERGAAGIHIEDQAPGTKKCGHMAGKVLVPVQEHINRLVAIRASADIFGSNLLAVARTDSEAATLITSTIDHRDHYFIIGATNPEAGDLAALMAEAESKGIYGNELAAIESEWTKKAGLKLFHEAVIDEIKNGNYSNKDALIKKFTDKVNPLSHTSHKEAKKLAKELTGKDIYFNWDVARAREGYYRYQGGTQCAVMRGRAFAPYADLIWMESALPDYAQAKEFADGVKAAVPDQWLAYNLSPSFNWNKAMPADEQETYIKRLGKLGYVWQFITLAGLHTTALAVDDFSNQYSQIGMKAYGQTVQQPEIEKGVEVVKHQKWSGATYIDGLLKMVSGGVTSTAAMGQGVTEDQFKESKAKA

Row | Compound | MIC [1] | MIC [2] | MIC [3] | MIC [4] | MIC [5] | MIC [6] | IC50 [7] | IC50 [8] | IC50 [9] | IC50 [10]
1 | O=C1C=C(c2cc(Br)c(O)c(Br)c2)C(=O)C1(c1cc(Br)c(O)c(Br)c1)c1cc(Br)c(O)c(Br)c1 | 4 µg/mL | > 128 µg/mL | > 128 µg/mL | 64 µg/mL | > 128 µg/mL | > 128 µg/mL | 88 µM | 34 µM | > 10 µM | > 10 µM
2 | COC(=O)C1=C(c2cc(Br)c(O)c(Br)c2)C(=O)[C@](OC)(c2ccc(O)c(Br)c2)O[C@]1(OC)c1cc(Br)c(O)c(Br)c1 | 64 µg/mL | > 128 µg/mL | > 128 µg/mL | > 128 µg/mL | > 128 µg/mL | > 128 µg/mL | > 145 µM | 127 µM | > 10 µM | > 10 µM
3 | COc1ccc(/C=C2\OC(=O)C([C@@H](O)c3cc(Br)c(OC)c(Br)c3)=C2c2cc(Br)c(O)c(Br)c2)cc1Br | 32 µg/mL | 64 µg/mL | > 128 µg/mL | 64 µg/mL | 8 µg/mL | > 128 µg/mL | > 156 µM | 150 µM |  | 
4 | O=C1C=C(c2cc(Br)c(O)c(Br)c2)/C(=C/c2cc(Br)c(O)c(Br)c2)O1 [RUBROLIDE A] | 32 µg/mL | > 128 µg/mL | > 128 µg/mL | 32 µg/mL | 16 µg/mL | > 128 µg/mL | 216 µM | > 216 µM |  | 
5 | O=C(O)CC[N+](=O)[O-] |  |  |  |  |  |  |  | 17 µM |  | 
6 | COc1ccc2cc3[n+](cc2c1OC)CCc1cc2c(cc1-3)OCO2 [BERBERINE CHLORIDE] |  |  |  |  |  |  | 102 µM |  |  | 
7 | COC(=O)C1=C(c2ccc(O)c(Br)c2)C(=O)[C@](c2ccc(O)c(Br)c2)(c2cc(Br)c(O)c(Br)c2)C1=O | 32 µg/mL | > 128 µg/mL | > 128 µg/mL | 64 µg/mL | 8 µg/mL | > 128 µg/mL | 102 µM | 47 µM | > 10 µM | > 10 µM
8 | COC(=O)C1=C(c2cc(Br)c(O)c(Br)c2)[C@](OC)(c2ccc(O)c(Br)c2)O[C@@]1(C(=O)OC)c1cc(Br)c(O)c(Br)c1 | 64 µg/mL | 8 µg/mL | > 128 µg/mL | 64 µg/mL | 64 µg/mL | > 128 µg/mL | > 145 µM | > 145 µM | > 10 µM | > 10 µM
9 | CC1(C)S[C@@H]2[C@H](NC(=O)[C@H](N)c3ccccc3)C(=O)N2[C@H]1C(=O)O [AMPICILLIN] | 0.03 µg/mL | 0.5 µg/mL | 0.5 µg/mL | 0.06 µg/mL | 0.03 µg/mL |  |  |  |  | 
10 | CN(C)[C@@H]1C(O)=C(C(N)=O)C(=O)[C@@]2(O)C(O)=C3C(=O)c4c(O)cccc4[C@@](C)(O)[C@H]3C[C@@H]12 [TETRACYCLINE] |  |  |  |  |  | 0.25 µg/mL |  |  |  | 
11 | COC(=O)C1=C(c2cc(Br)c(O)c(Br)c2)C(=O)C(c2cc(Br)c(O)c(Br)c2)(c2cc(Br)c(O)c(Br)c2)C1=O | 16 µg/mL | 64 µg/mL | > 128 µg/mL | 64 µg/mL | > 128 µg/mL | > 128 µg/mL | 67 µM | 22 µM | > 10 µM | > 10 µM
12 | COc1ccc(C[C@@]2(O)OC(=O)C([C@@H](O)c3cc(Br)c(OC)c(Br)c3)=C2c2cc(Br)c(O)c(Br)c2)cc1Br | 16 µg/mL | 64 µg/mL | > 128 µg/mL | 16 µg/mL | 16 µg/mL | > 128 µg/mL | > 153 µM | 63 µM | > 10 µM | > 10 µM
13 | O=C1O/C(=C\c2ccc(O)c(Br)c2)C(c2ccc(O)c(Br)c2)=C1C(=O)c1cc(Br)c(O)c(Br)c1 [CADIOLIDE C] | 32 µg/mL | > 128 µg/mL | > 128 µg/mL | 64 µg/mL | > 128 µg/mL | > 128 µg/mL | 59 µM | 17 µM |  | 
14 | O=C(O)C1=C(c2ccc(O)c(Br)c2)C(=O)C(c2cc(Br)c(O)c(Br)c2)(c2cc(Br)c(O)c(Br)c2)C1=O | > 128 µg/mL | > 128 µg/mL | > 128 µg/mL | > 128 µg/mL | > 128 µg/mL | > 128 µg/mL | > 159 µM | 54 µM | > 10 µM | > 10 µM
15 | COC(=O)C1=C(c2cc(Br)c(O)c(Br)c2)[C@](OC)(c2cc(Br)c(O)c(Br)c2)O[C@@]1(C(=O)OC)c1cc(Br)c(O)c(Br)c1 | 64 µg/mL | > 128 µg/mL | > 128 µg/mL | > 128 µg/mL | > 128 µg/mL | > 128 µg/mL | > 133 µM | 104 µM | > 10 µM | > 10 µM
16 | COc1c(Br)cc([C@H](O)C2=C(c3ccc(O)c(Br)c3)/C(=C/c3cc(Br)c(O)c(Br)c3)OC2=O)cc1Br | 2 µg/mL | 8 µg/mL | > 128 µg/mL | 4 µg/mL | 2 µg/mL | > 128 µg/mL | > 159 µM | > 159 µM |  | 
17 | COC(=O)C1=C(c2cc(Br)c(O)c(Br)c2)C(=O)[C@](c2ccc(O)c(Br)c2)(c2cc(Br)c(O)c(Br)c2)C1=O | 16 µg/mL | > 128 µg/mL | > 128 µg/mL | 64 µg/mL | 64 µg/mL | > 128 µg/mL | 70 µM | 49 µM | > 10 µM | > 10 µM
18 | O=C1O/C(=C\c2cc(Br)c(O)c(Br)c2)C(c2cc(Br)c(O)c(Br)c2)=C1C(=O)c1cc(Br)c(O)c(Br)c1 [CADIOLIDE B] | 64 µg/mL | > 128 µg/mL | > 128 µg/mL | > 128 µg/mL | > 128 µg/mL | > 128 µg/mL | 103 µM | 61 µM |  | 
19 | O=C1O/C(=C\c2cc(Br)c(O)c(Br)c2)C(c2ccc(O)c(Br)c2)=C1C(=O)c1cc(Br)c(O)c(Br)c1 [CADIOLIDE E] | > 128 µg/mL | > 128 µg/mL | > 128 µg/mL | > 128 µg/mL | > 128 µg/mL | > 128 µg/mL | > 162 µM | 27 µM |  | 
20 | O=C1O/C(=C\c2ccc(O)c(Br)c2)C(c2cc(Br)c(O)c(Br)c2)=C1C(=O)c1cc(Br)c(O)c(Br)c1 [CADIOLIDE D] | 64 µg/mL | > 128 µg/mL | > 128 µg/mL | > 128 µg/mL | > 128 µg/mL | > 128 µg/mL | 34 µM | 11 µM |  | 
21 | COc1c(Br)cc([C@H](O)C2=C(c3cc(Br)c(O)c(Br)c3)/C(=C/c3ccc(O)c(Br)c3)OC2=O)cc1Br | 8 µg/mL | 32 µg/mL | > 128 µg/mL | 8 µg/mL | 4 µg/mL | > 128 µg/mL | > 159 µM | > 159 µM |  | 
